{"source": "patent US20070225340A1", "about": "“Phenyl Compounds And Their Use In The Treatment Of Conditions Mediated By The Action Of Pge2 At The Ep1 Receptor” (Glaxo Group Limited, priority 2004, published 2007)", "origin": "cited, not measured here", "key": {"EP1 receptor [1]": {"molecular_target": "T1, EP1 receptor (Rattus norvegicus, UniProt P70597)", "T1 sequence (P70597 1-405)": "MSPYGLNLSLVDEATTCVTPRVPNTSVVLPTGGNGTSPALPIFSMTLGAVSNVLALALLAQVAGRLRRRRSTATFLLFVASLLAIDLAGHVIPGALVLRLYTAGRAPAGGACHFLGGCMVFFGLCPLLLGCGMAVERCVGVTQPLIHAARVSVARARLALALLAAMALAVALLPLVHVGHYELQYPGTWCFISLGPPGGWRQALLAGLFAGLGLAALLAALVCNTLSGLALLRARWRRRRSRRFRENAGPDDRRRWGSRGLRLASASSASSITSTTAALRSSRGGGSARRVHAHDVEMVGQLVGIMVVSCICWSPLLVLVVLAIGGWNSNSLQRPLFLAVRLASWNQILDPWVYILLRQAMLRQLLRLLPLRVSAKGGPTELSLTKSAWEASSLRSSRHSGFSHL", "set-up": "host or cells: living rodent (in vivo pain model)", "details": "rodent, post-operative pain; Anesthesia and Analgesia 2001, 92, 233-238"}, "EP1 receptor [2]": {"molecular_target": "T1, EP1 receptor", "set-up": "host or cells: living rat (in vivo pain model)", "details": "chronic constriction injury, Anesthesia and Analgesia 2001, 93, 1012-7"}}, "data": [{"smiles": "Cc1cc(Cl)ccc1S(=O)(=O)NC[C@H]1C2CCC(CC2)[C@@H]1/C=C\\CCCC(=O)O", "note": "[ONO-8711]", "values": [{"measurement": "effect on mechanical hyperalgesia", "setting": "EP1 receptor [1]", "value": "inhibits mechanical hyperalgesia"}, {"measurement": "effect on hyperalgesia and allodynia", "setting": "EP1 receptor [2]", "value": "reduces hyperalgesia and allodynia"}]}]}
